Test results published in PMC10045593, “Ubiquitin-Specific Proteases as Potential Therapeutic Targets in Bladder Cancer—In Vitro Evaluation of Degrasyn and PR-619 Activity Using Human and Canine Models” (Biomedicines, 2023).

How the values were obtained:
[1] = system: Bcl-xl in all cell lines (SV-HUC-1, T24, K9TCC-PU-NK, RDSVS-TCC1); experiment: Western blot for Bcl-xl expression; assay type: cell-based, human and canine; conditions: 24 h
Experimental: (§1) Western blot was performed to assess the expression of USP5, USP9X, and USP14 in analyzed cell lines. After 24 h of incubation with increasing concentrations of Degrasyn and PR-619, the expression of proteins involved in apoptosis (Bcl-2 and Bcl-xl) and a marker of DNA damage (γH2A.X) was also evaluated. Briefly, cells were rinsed with cold phosphate-buffered saline (PBS), suspended in lysis buffer (50 mM Tris-HCl pH 7.5, 100 mM NaCl, 1% NP-40, protease inhibitors set), and incubated for 20 min on ice. Subsequently, after centrifuging at 10,000 rpm at 4 °C for 12 min, sodium dodecyl sulfate (SDS) sample buffer was added to […]. After boiling for 5 min at 95 °C, the samples were subjected to SDS-polyacrylamide gel electrophoresis on 8–15% gel. For USP5, USP9X, USP14, γH2A.X, Bcl-2, and Bcl-xl expression analysis, transfers onto nitrocellulose membranes were performed using a Semidry Transfer Cell or wet transfer method (Bio-Rad, Hercules, CA, USA). After transfer, the membranes were blocked with 1% casein in TBS (or 3% BSA for γH2Ax) at room temperature for 1 h. […]

[2] = system: USP5 protein in T24 cells; experiment: Western blot for USP5 expression; assay type: cell-based, human; conditions: T24, 24 h; Degrasyn 0.6, 1.25, 2.5 μM; PR-619 1.25, 2.5, 5 μM
Experimental: as §1

[3] = system: K9TCC-PU-NK cell line; experiment: Ki-67 flow cytometry proliferation assay; assay type: cell-based, canine; conditions: 24 h, p < 0.05
Experimental: (§2) For the cell proliferation assay, cells were plated in 100 mm cell culture plates. When the cultures reached 60% confluence, the media were discarded from the wells and replaced with culture media only or media with added compounds (Degrasyn, PR-619) with increasing concentrations for 24 h. The growth medium was then removed from the wells, the cells were rinsed twice with PBS, and 0.25% trypsin-EDTA was added to detach the cells. After 5 min of incubation at 37 °C and 5% CO2, the fresh culture medium was added to inactivate the trypsin, and cells were collected in flow cytometry tubes. Cells were then labeled using the Ki-67 Proliferation Kit BD Pharmingen(BD Biosciences) according to the manufacturer’s instructions and analyzed using a flow cytometer (Cytoflex, Beckman Coulter). Unstained control cells were used for gating to determine the percentage of the proliferation of the Ki-67-positive cells in the samples. Percentages of proliferating (Ki-67 positive) cells were used to calculate the means ± SD for each cell line. The presented results were obtained from three independent experiments.

[4] = system: RDSVS-TCC1 cell line; experiment: Ki-67 flow cytometry proliferation assay; assay type: cell-based, canine; conditions: RDSVS-TCC1, 24 h, p < 0.05
Experimental: as §2

[5] = system: γH2AX in canine BC cell lines (K9TCC-PU-NK, RDSVS-TCC1); experiment: Western blot for γH2AX (DNA damage); assay type: cell-based; conditions: 24 h
Experimental: as §1

[6] = system: γH2AX in T24 cell line; experiment: Western blot for γH2AX (DNA damage); assay type: cell-based, human; conditions: T24, 24 h
Experimental: as §1

[7] = system: K9TCC-PU-NK cell line; experiment: MTT cell proliferation assay; assay type: cell-based, canine; conditions: highest concentration used (20 μM)
Experimental: (§3) Cell proliferation was determined using the 3-(4,5-dimethylthiazol-2-yl)-2,5-diphenyltetrazolium bromide (MTT) assay (Sigma-Aldrich, Steinheim, Germany). Cells were plated at a density of 1 × 10^5 cells per mL in 96-well plates (Thermo Fisher Scientific, Roskilde, Denmark) and allowed to attach overnight. Subsequently, Degrasyn and PR-619 were added in increasing concentrations (0.6, 1.25, 2.5, 5, 10, and 20 μM). After incubation for 24, 48, and 72 h with either the compounds or in the medium alone, 20 μL of MTT solution (5 mg/mL) was added to each well. After an additional 4 h, 80 μL of the lysis buffer (225 mL DMF, 67.5 g SDS, and 275 mL distilled water) was added to each well. After dissolving the content, the absorbance was measured at a […] of 570 nm using a spectrophotometric microplate reader Spark (Tecan). The values were obtained from 3 independent experiments (different plates, different days). Based on the results, the concentration that inhibited 50% of the cell proliferation (IC50) was calculated for all incubation intervals.

[8] = system: RDSVS-TCC1 cell line; experiment: MTT cell proliferation assay; assay type: cell-based, canine; conditions: highest concentration used (20 μM)
Experimental: as §3

[9] = system: SV-HUC-1 cell line; experiment: Annexin V-FITC/PI apoptosis flow cytometry; assay type: cell-based, human; conditions: SV-HUC-1, 24 h; for pro-apoptotic effect (number of apoptotic cells vs control): increasing concentrations up to approximately IC50
Experimental: (§4) To assess the level of apoptosis induced by Degrasyn and PR-619, cells were seeded at a density of 1 × 10^5/mL in 96-well plates (TPP, Trasadingen, Switzerland) and incubated for 24 h with increasing concentrations of compounds. Cells were then collected, suspended in a binding buffer, and stained with Annexin V-FITC for 10 min at room temperature. Subsequently, PI was added, and flow cytometric analysis was immediately performed using a flow cytometers (FACS Calibur, Becton Dickinson, Biosciences, San Jose, CA, USA; CytoFlex, Beckman Coulter, CA, USA). CellQuest 3.lf. (Becton Dickinson, San Jose, CA, USA) and CytExpert 2.4 (Beckman Coulter, CA, USA) software were used for data analysis.

[10] = system: T24 cell line; experiment: Annexin V-FITC/PI apoptosis flow cytometry; assay type: cell-based, human; conditions: T24, 24 h; for pro-apoptotic effect (number of apoptotic cells vs control): increasing concentrations up to approximately IC50
Experimental: as §4

[11] = system: Bcl-2 in all BC cell lines (T24, K9TCC-PU-NK, RDSVS-TCC-1); experiment: Western blot for Bcl-2 expression; assay type: cell-based, human and canine; conditions: 24 h
Experimental: as §1

[12] = only highest concentration 5 µM
[13] = only highest concentration 10 µM
[14] = highest concentrations of the drug

For `CCC[C@H](NC(=O)/C(C#N)=C/c1cccc(Br)n1)c1ccccc1` [Degrasyn], which Bcl-xl expression ([1]; all cell lines, 5 μM) is on record?
The Bcl-xl expression was “slightly reduced”.

What about the USP5 protein expression [2] of the same compound?
The USP5 protein expression was “clearly decreased”.

What about the “percentage of Ki-67 positive cells (as compared to control)” value [3, 12] of the same compound?
The value was “significantly decreased”.

And the “percentage of Ki-67 positive cells (as compared to control)” value [4, 12]?
Its value is “significantly decreased”.

And the “expression of γH2AX” value ([5]; only 5 µM)?
The value was “high expression”.

What about the “expression of γH2AX” value ([6]; 2.5 µM and 5 µM) of the same compound?
The value was “high expression”.

And the “cells killed at the highest concentration” value [7]?
Its value is ~100%.

And the “cells killed at the highest concentration” value [8]?
Its value is ~100%.

And the “percentage of early and late apoptotic cells” value ([9]; 2.5 μM)?
Its value is 24.1 ± 2.8%.

What about the “pro-apoptotic effect (number of apoptotic cells vs control)” value [9] of the same compound?
Its value is “significant increase”.

What about the “percentage of early and late apoptotic cells” value ([10]; 2.5 μM) of the same compound?
The value was 32.2 ± 9.2%.

What about the “pro-apoptotic effect (number of apoptotic cells vs control)” value [10] of the same compound?
Its value is “significant increase”.

And the “expression of Bcl-2 protein” value ([11]; 5 μM)?
The value was “slightly decreased”.

What does the source list for `N#CSc1cc(SC#N)c(N)nc1N` [PR-619]?
Bcl-xl expression ([1]; analyzed cell lines, increasing concentrations): No clearly visible changes; USP5 protein expression [2]: no visible effect; percentage of Ki-67 positive cells (as compared to control) [3, 13]: significantly decreased; percentage of Ki-67 positive cells (as compared to control) [4, 13]: significantly decreased; amount of γH2AX [5, 14]: only a slight visible increase; amount of γH2AX [6, 14]: only a slight visible increase; cells killed at the highest concentration [7]: ~100%; cells killed at the highest concentration [8]: ~100%; percentage of early and late apoptotic cells ([9]; 5 μM): 14.8 ± 5.8%; pro-apoptotic effect (number of apoptotic cells vs control) [9]: did not show a significant pro-apoptotic effect; percentage of early and late apoptotic cells ([10]; 5 μM): 9.8 ± 1.5%; pro-apoptotic effect (number of apoptotic cells vs control) [10]: did not show a significant pro-apoptotic effect; expression of Bcl-2 protein ([11]; 10 μM): slightly decreased
